From patent US20180194762A1 (Pharmacyclics LLC, priority 2017, published 2018)
Like-named read-outs stand apart in the source and are kept apart here.

What was measured:
Assay type in all cases: biochemical
Btk = biological target: T1, Btk (Homo sapiens, UniProt Q06187); experiment: Btk in vitro inhibitory activity (one of Method A TR-FRET, Method B electrophoretic mobility shift, Method C radiometric filter binding)
T1 construct: purified from insect cells as a full-length construct containing a N-terminal 6X-His tag; His6 (N); made in house; host or cells: insect cells (Method C)
In short: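 Three alternative formats were used. A radiometric filter-binding read used 8 nM full-length His-BTK with 0.2 mg/mL poly(Glu-Tyr) 4:1 (C); microfluidic separation of 1 μM FAM-peptide by 1 nM BTK gave IC50 from 12-point curves (B); TR-FRET at Km ATP, 0.5 nM Btk, gave Ki(app)-derived IC50 (A).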

TEC = biological target: T2, TEC (Homo sapiens, UniProt P42680); experiment: Inhibition of a panel of kinases (in vitro HotSpot kinase assay, 33P-ATP, 1 μM ATP); conditions: for IC50: HotSpot kinase assay, 1 μM ATP; for TEC/Btk: ratio of TEC IC50 to Btk IC50 (selectivity)
T2 sequence (P42680 1-631): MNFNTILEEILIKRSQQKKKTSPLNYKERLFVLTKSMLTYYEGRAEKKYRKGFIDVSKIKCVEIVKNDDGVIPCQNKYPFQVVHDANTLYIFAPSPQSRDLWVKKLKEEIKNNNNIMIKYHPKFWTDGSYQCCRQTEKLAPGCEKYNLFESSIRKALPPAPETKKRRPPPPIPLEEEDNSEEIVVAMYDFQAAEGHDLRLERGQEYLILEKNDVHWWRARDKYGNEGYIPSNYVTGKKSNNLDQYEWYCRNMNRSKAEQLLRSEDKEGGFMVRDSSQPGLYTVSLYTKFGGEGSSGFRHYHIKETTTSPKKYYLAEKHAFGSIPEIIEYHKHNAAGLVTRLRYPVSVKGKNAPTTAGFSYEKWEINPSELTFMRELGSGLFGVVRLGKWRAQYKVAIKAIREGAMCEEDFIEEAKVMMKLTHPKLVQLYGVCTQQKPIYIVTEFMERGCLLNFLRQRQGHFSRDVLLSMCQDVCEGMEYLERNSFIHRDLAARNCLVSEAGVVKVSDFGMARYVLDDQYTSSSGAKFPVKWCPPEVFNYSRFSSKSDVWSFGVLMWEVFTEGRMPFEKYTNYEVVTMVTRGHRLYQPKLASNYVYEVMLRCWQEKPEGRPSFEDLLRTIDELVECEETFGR
In short: (§1)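 Radiometric read-out: 33P transfer to a suitable substrate by each purified enzyme, ATP at 1 μM. Values are degree of inhibition.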

panel of kinases = biological target: T3, panel of kinases (Homo sapiens, UniProt P51813); experiment: Inhibition of a panel of kinases (in vitro HotSpot kinase assay, 33P-ATP, 1 μM ATP), other kinases; conditions: BMX wild-type, read-out: BMX-WT IC50
T3 sequence (P51813 1-675): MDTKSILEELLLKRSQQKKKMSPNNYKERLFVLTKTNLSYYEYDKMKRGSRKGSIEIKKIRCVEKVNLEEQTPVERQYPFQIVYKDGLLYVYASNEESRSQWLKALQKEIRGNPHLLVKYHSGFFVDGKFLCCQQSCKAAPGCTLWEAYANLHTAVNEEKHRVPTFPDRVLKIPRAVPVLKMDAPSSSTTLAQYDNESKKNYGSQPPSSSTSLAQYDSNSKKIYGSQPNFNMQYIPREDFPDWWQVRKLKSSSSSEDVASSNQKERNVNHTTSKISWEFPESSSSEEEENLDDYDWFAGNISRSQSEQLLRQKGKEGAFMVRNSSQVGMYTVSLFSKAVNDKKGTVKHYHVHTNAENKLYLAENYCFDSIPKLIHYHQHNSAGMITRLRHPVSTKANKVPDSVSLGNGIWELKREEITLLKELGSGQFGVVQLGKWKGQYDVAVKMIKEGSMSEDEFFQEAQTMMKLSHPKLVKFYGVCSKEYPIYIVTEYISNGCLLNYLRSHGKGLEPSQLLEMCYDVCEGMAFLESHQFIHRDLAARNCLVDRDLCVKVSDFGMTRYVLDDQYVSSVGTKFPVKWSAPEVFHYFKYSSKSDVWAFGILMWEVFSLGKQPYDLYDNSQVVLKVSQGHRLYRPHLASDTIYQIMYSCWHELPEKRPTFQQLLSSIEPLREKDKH
In short: as §1

[1] = wild-type Btk, read-out: Btk-WT IC50
[2] = method is one of A, B or C, not stated which, read-out: IC50 values against Btk

T1 sequence (Q06187 whole entry): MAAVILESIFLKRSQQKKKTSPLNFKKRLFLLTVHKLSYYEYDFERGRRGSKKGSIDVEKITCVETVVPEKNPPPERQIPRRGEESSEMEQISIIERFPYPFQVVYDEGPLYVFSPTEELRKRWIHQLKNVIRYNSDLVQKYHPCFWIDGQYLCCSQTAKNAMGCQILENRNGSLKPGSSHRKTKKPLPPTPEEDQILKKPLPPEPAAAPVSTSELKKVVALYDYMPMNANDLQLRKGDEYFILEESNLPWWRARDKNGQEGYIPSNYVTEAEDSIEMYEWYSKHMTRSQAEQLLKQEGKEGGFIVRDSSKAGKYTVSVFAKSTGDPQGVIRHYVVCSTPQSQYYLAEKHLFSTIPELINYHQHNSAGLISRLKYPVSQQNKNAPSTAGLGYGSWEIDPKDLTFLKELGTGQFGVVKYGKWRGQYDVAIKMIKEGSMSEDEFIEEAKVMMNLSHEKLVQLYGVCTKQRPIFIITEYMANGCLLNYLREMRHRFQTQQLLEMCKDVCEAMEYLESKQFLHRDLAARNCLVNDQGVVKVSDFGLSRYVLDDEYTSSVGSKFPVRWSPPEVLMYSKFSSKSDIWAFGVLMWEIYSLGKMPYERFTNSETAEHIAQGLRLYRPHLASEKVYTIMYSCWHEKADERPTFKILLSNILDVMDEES

Row | Compound | IC50 (Btk; [1]) [µM] | IC50 (TEC) [µM] | TEC/Btk (TEC) | IC50 (panel of kinases) [µM] | IC50 (Btk; [2]) [µM]
1 | CC(C)(C)c1nc(C(=O)NC2(c3ccc(-c4ccnc5[nH]nc(N[C@@H]6CCNC6)c45)cc3)CC2)no1 [Compound 1, 5-tert-butyl-N-{1-[4-(3-{[(3R)-pyrrolidin-3-yl]amino}-1H-pyrazolo[3,4-b]pyridin-4-yl)phenyl]cyclopropyl}-1,2,4-oxadiazole-3-carboxamide] | 0.0577 | > 10 | >100 | > 10 | 
2 | CC(C)(C)c1nc(C(=O)NCc2ccc(-c3ccnc4[nH]nc(N5CC[C@@H](N)C5)c34)cc2F)no1 [Example 108, N-[(4-{3-[(3R)-3-aminopyrrolidin-1-yl]-1H-pyrazolo[3,4-b]pyridin-4-yl}-2-fluorophenyl)methyl]-5-tert-butyl-1,2,4-oxadiazole-3-carboxamide] | 0.00177 | 1.65 |  | 1.73 | < 0.01
3 | C=CC(=O)N1CCC(Nc2n[nH]c3nccc(-c4ccc(CNC(=O)c5ccc(C(C)(C)C)cc5)c(F)c4)c23)CC1 [Example 104, 4-tert-butyl-N-{[2-fluoro-4-(3-{[1-(prop-2-enoyl)piperidin-4-yl]amino}-1H-pyrazolo[3,4-b]pyridin-4-yl)phenyl]methyl}benzamide] | 0.00187 | 1.56 | 834 | 0.897 | < 0.01
4 | C=CC(=O)N1CC[C@@H](Nc2n[nH]c3nccc(-c4ccc(CNC(=O)c5cnn(C(C)(C)C)c5)c(F)c4)c23)C1 [Example 80, 1-tert-butyl-N-{[2-fluoro-4-(3-{[(3R)-1-(prop-2-enoyl)pyrrolidin-3-yl]amino}-1H-pyrazolo[3,4-b]pyridin-4-yl)phenyl]methyl}-1H-pyrazole-4-carboxamide] | 0.000129 | 0.057 | 440 | 0.076 | < 0.01
5 | C=CC(=O)N1CC[C@@H](Nc2n[nH]c3nccc(-c4ccc(CNC(=O)c5ccc(C(F)(F)F)cc5)c(F)c4)c23)C1 [Compound 48, (R)—N-(4-(3-((1-acryloylpyrrolidin-3-yl)amino)-1H-pyrazolo[3,4-b]pyridin-4-yl)-2-fluorobenzyl)-4-(trifluoromethyl)benzamide] | 0.000798 | 0.065 | 81 | 0.046 | 
6 | CC(C)(C)c1nc(C(=O)NCc2cc(F)cc(-c3ccnc4[nH]nc(N[C@@H]5CCNC5)c34)c2)no1 [Example 74, 5-tert-butyl-N-{[3-fluoro-5-(3-{[(3R)-pyrrolidin-3-yl]amino}-1H-pyrazolo[3,4-b]pyridin-4-yl)phenyl]methyl}-1,2,4-oxadiazole-3-carboxamide] | > 10 | > 10 |  | > 10 | 
7 | C=CC(=O)N1CC[C@@H](Nc2n[nH]c3nccc(-c4ccc(C5(NC(=O)c6noc(C(C)(C)C)n6)CC5)cc4)c23)C1 [Compound 4, (R)—N-(1-(4-(3-((1-acryloylpyrrolidin-3-yl)amino)-1H-pyrazolo[3,4-b]pyridin-4-yl)phenyl)cyclopropyl)-5-(tert-butyl)-1,2,4-oxadiazole-3-carboxamide] | 0.000559 | 0.103 | 184 | 0.132 | 
8 | C=CC(=O)N1CC[C@@H](Nc2n[nH]c3nccc(-c4ccc(CNC(=O)c5cccc(C(C)(C)C)c5)c(F)c4)c23)C1 [Compound 46, (R)—N-(4-(3-((1-acryloylpyrrolidin-3-yl)amino)-1H-pyrazolo[3,4-b]pyridin-4-yl)-2-fluorobenzyl)-3-(tert-butyl)benzamide] | 0.00855 | 0.182 | 21 | 0.091 | 

The remaining lines, values ahead:

Row | IC50 (Btk; [1]) [µM] | IC50 (TEC) [µM] | TEC/Btk (TEC) | IC50 (panel of kinases) [µM] | IC50 (Btk; [2]) [µM] | Compound
9 | 0.0286 | 3.01 | 105 | 3.13 |  | C[C@@H](NC(=O)c1cc(C(C)(C)O)on1)c1ccc(-c2ccnc3[nH]nc(N[C@@H]4CC[C@H](C)N(C(=O)N(C)C)C4)c23)cc1F [Example 192, (2S,5R)-5-[(4-{3-fluoro-4-[(1R)-1-{[5-(2-hydroxypropan-2-yl)-1,2-oxazole-3-carbonyl]amino}ethyl]phenyl}-1H-pyrazolo[3,4-b]pyridin-3-yl)amino]-N,N,2-trimethylpiperidine-1-carboxamide]
10 | 0.00377 | 0.21 |  | 0.0288 |  | C=CC(=O)N1CC[C@@H](Nc2n[nH]c3nccc(-c4ccc(CNC(=O)c5cc(Cl)on5)c(F)c4)c23)C1 [Example 342, 5-chloro-N-{[2-fluoro-4-(3-{[(3R)-1-(prop-2-enoyl)pyrrolidin-3-yl]amino}-1H-pyrazolo[3,4-b]pyridin-4-yl)phenyl]methyl}-1,2-oxazole-3-carboxamide]
11 | 0.000329 | 0.34 | 1033 | 0.31 |  | C[C@@H](NC(=O)c1noc(C(C)(C)C)n1)c1ccc(-c2ccnc3[nH]nc(N[C@@H]4CC[C@H](C)N(C(=O)N(C)C)C4)c23)cc1F [Example 191, (2S,5R)-5-{[4-(4-{(1R)-1-[(5-tert-butyl-1,2,4-oxadiazole-3-carbonyl)amino]ethyl}-3-fluorophenyl)-1H-pyrazolo[3,4-b]pyridin-3-yl]amino}-N,N,2-trimethylpiperidine-1-carboxamide]
12 | 0.000908 | 0.0159 |  | 0.00459 |  | C=CC(=O)N1CCC[C@@H](Nc2n[nH]c3nccc(-c4ccc(CNC(=O)c5cc(CC)on5)c(F)c4)c23)[C@H]1C [Example 304, 5-ethyl-N-{[2-fluoro-4-(3-{[(2R,3R)-2-methyl-1-(prop-2-enoyl)piperidin-3-yl]amino}-1H-pyrazolo[3,4-b]pyridin-4-yl)phenyl]methyl}-1,2-oxazole-3-carboxamide]
13 | 0.0633 | 1.89 |  | 0.661 |  | CC(=O)N[C@@H]1CCN(c2n[nH]c3nccc(-c4ccc(CNC(=O)c5nc6ccccc6o5)c(F)c4)c23)C1 [Example 394, N-[(4-{3-[(3R)-3-acetamidopyrrolidin-1-yl]-1H-pyrazolo[3,4-b]pyridin-4-yl}-2-fluorophenyl)methyl]-1,3-benzoxazole-2-carboxamide]
14 | 0.000163 | 0.0313 |  | 0.0871 |  | C=CC(=O)N[C@@H]1CCN(c2n[nH]c3nccc(-c4ccc(CNC(=O)c5ccc(C(C)(C)O)cc5)c(F)c4)c23)C1 [Example 325, N-{[2-fluoro-4-(3-{(3R)-3-[(prop-2-enoyl)amino]pyrrolidin-1-yl}-1H-pyrazolo[3,4-b]pyridin-4-yl)phenyl]methyl}-4-(2-hydroxypropan-2-yl)benzamide]
15 | > 10 | > 10 |  | > 10 |  | CCc1cc(C(=O)NCc2ccc(-c3ccnc4[nH]nc(N[C@@H]5CCCN[C@@H]5C)c34)cc2F)no1 [Example 170, 5-ethyl-N-{[2-fluoro-4-(3-{[(2R,3R)-2-methylpiperidin-3-yl]amino}-1H-pyrazolo[3,4-b]pyridin-4-yl)phenyl]methyl}-1,2-oxazole-3-carboxamide]
16 | 0.0143 | 3.21 |  | 3.43 |  | CC(=O)N[C@@H]1CCN(c2n[nH]c3nccc(-c4ccc(CNC(=O)c5coc(C(C)C)n5)c(F)c4)c23)C1 [Example 360, N-[(4-{3-[(3R)-3-acetamidopyrrolidin-1-yl]-1H-pyrazolo[3,4-b]pyridin-4-yl}-2-fluorophenyl)methyl]-2-(propan-2-yl)-1,3-oxazole-4-carboxamide]
